Results as given in ChEMBL document CHEMBL5120762, “Synthesis of 8-Fluoroneocryptolepine and Evaluation for Cytotoxic Activity against AGS Cancer Cells” (J Nat Prod, 2022).
The source made the active and inactive calls. The calls are words filed in the database; no cut-off is given here.

How the values were obtained:
AGS [1] = assay: Cytotoxicity against human AGS cells assessed as reduction in cell viability measured after 48 hrs by MTT assay; assay type: functional, cell-based
[2] = Cytotoxicity against human GES1 cells assessed as reduction in cell viability measured after 48 hrs by MTT assay; assay type: toxicity, cell-based
AGS [3] = assay: Induction of cell cycle arrest in human AGS cells assessed as reduction in CDK1 gene expression at 50 nM measured after 48 hrs by RT-qPCR analysis; assay type: functional, cell-based
AGS [4] = assay: Induction of apoptosis in human AGS cells assessed as appearance of bright blue fluorescence at 250 nM measured after 48 hrs by Hoechst 33258 staining based fluorescence microscopy; assay type: functional, cell-based
AGS [5] = assay: Induction of apoptosis in human AGS cells assessed as late apoptotic cells at 50 nM measured after 48 hrs by Annexin V-Alexa Fluor 488/propidium iodide staining based flow cytometry (reference value: 3.1%); assay type: functional
AGS [6] = assay: Induction of apoptosis in human AGS cells assessed as viable cells at 250 nM measured after 48 hrs by Annexin V-Alexa Fluor 488/propidium iodide staining based flow cytometry (reference value: 95.6%); assay type: functional; conditions: read-out: Activity
AGS [7] = assay: Induction of apoptosis in human AGS cells assessed as nuclear fragmentation at 250 nM measured after 48 hrs by Hoechst 33258 staining based fluorescence microscopy; assay type: functional, cell-based
AGS [8] = assay: Induction of morphological changes in human AGS cells assessed as weak cell adhesion at 50 to 250 nM measured after 48 hrs; assay type: functional, cell-based; conditions: dose 50-250 nM
SMMC-7721 = assay: Cytotoxicity against human SMMC-7721 cells assessed as reduction in cell viability measured after 48 hrs by MTT assay; assay type: functional, cell-based; conditions: SMMC-7721, 48 h
AGS [9] = assay: Increase in PI3KCA mRNA expression in human AGS cells at 50 nM measured after 48 hrs by RT-qPCR analysis; assay type: functional, cell-based
AGS [10] = assay: Cell cycle arrest in human AGS cells assessed as accumulation at S phase at 20 nM measured after 24 hrs by propidium iodide staining based flow cytometry (reference value: 43.66%); assay type: functional
AGS [11] = assay: Induction of apoptosis in human AGS cells assessed as late apoptotic cells at 250 nM measured after 48 hrs by Annexin V-Alexa Fluor 488/propidium iodide staining based flow cytometry (reference value: 3.1%); assay type: functional
AGS [12] = assay: Inhibition of PI3K in human AGS cells assessed as decrease in AKT expression at 50 nM measured after 48 hrs by Western blot analysis; assay type: cell-based
AGS [13] = assay: Induction of cell cycle arrest in human AGS cells assessed as reduction in CDK1 expression at 50 nM measured after 48 hrs by Western blot analysis; assay type: functional, cell-based
AGS [14] = assay: Induction of apoptosis in human AGS cells assessed as up regulation of cleaved caspase-3 expression at 50 nM measured after 48 hrs by Western blot analysis; assay type: functional, cell-based
AGS [15] = assay: Cell cycle arrest in human AGS cells assessed as accumulation at S phase at 10 nM measured after 24 hrs by propidium iodide staining based flow cytometry (reference value: 43.66%); assay type: functional
AGS [16] = assay: Induction of apoptosis in human AGS cells assessed as early apoptotic cells at 50 nM measured after 48 hrs by Annexin V-Alexa Fluor 488/propidium iodide staining based flow cytometry (reference value: 0.4%); assay type: functional
AGS [17] = assay: Induction of mitochondrial membrane potential loss in human AGS cells assessed as increase in green fluorescence at 10 to 250 nM measured after 48 hrs by JC-10 staining based fluorescence microscopy; assay type: functional, cell-based; conditions: dose 10-250 nM
AGS [18] = assay: Induction of apoptosis in human AGS cells measured after 48 hrs by Annexin V-Alexa Fluor 488/propidium iodide staining based flow cytometry; assay type: functional, cell-based; conditions: dose 10-250 nM, DDE = dose-dependent effect
AGS [19] = assay: Inhibition of PI3K in human AGS cells assessed as decrease in AKT mRNA expression at 50 nM measured after 48 hrs by RT-qPCR analysis; assay type: cell-based
AGS [20] = assay: Up regulation of E-cadherin expression in human AGS cells at 50 nM measured after 48 hrs by Western blot analysis; assay type: functional, cell-based
AGS [21] = assay: Induction of apoptosis in human AGS cells assessed as chromatin shrinkage at 250 nM measured after 48 hrs by Hoechst 33258 staining based fluorescence microscopy; assay type: functional, cell-based
AGS [22] = assay: Induction of apoptosis in human AGS cells assessed as viable cells at 50 nM measured after 48 hrs by Annexin V-Alexa Fluor 488/propidium iodide staining based flow cytometry (reference value: 95.6%); assay type: functional; conditions: read-out: Activity
AGS [23] = assay: Cell cycle arrest in human AGS cells assessed as accumulation at G0/G1 phase at 10 nM measured after 24 hrs by propidium iodide staining based flow cytometry (reference value: 39.77%); assay type: functional
AGS [24] = assay: Cell cycle arrest in human AGS cells assessed as accumulation at G0/G1 phase at 20 nM measured after 24 hrs by propidium iodide staining based flow cytometry (reference value: 39.77%); assay type: functional
AGS [25] = assay: Induction of apoptosis in human AGS cells assessed as early apoptotic cells at 10 nM measured after 48 hrs by Annexin V-Alexa Fluor 488/propidium iodide staining based flow cytometry (reference value: 0.4%); assay type: functional
AGS [26] = assay: Antimigratory activity against human AGS cells assessed as number of migrating cells at 10 to 20 nM measured after 48 hrs by crystal violet staining based transwell assay (reference value: 293); assay type: functional; conditions: dose 10-20 nM
AGS [27] = assay: Induction of apoptosis in human AGS cells assessed as viable cells at 10 nM measured after 48 hrs by Annexin V-Alexa Fluor 488/propidium iodide staining based flow cytometry (reference value: 95.6%); assay type: functional; conditions: read-out: Activity
AGS [28] = assay: Induction of apoptosis in human AGS cells assessed as necrotic cells at 10 nM measured after 48 hrs by Annexin V-Alexa Fluor 488/propidium iodide staining based flow cytometry (reference value: 0.9%); assay type: functional
AGS [29] = assay: Induction of apoptosis in human AGS cells assessed as early apoptotic cells at 250 nM measured after 48 hrs by Annexin V-Alexa Fluor 488/propidium iodide staining based flow cytometry (reference value: 0.4%); assay type: functional
AGS [30] = assay: Increase in GSK-3beta mRNA expression in human AGS cells at 50 nM measured after 48 hrs by RT-qPCR analysis; assay type: functional, cell-based
PANC-1 = assay: Cytotoxicity against human PANC-1 cells assessed as reduction in cell viability measured after 48 hrs by MTT assay; assay type: functional, cell-based; conditions: PANC-1, 48 h
AGS [31] = assay: Reduction in beta-catenin mRNA expression in human AGS cells at 50 nM measured after 48 hrs by RT-qPCR analysis; assay type: functional, cell-based
AGS [32] = assay: Induction of morphological changes in human AGS cells assessed as cell rounding at 50 to 250 nM measured after 48 hrs; assay type: functional, cell-based; conditions: dose 50-250 nM
AGS [33] = assay: Down regulation of PI3KCA expression in human AGS cells at 50 nM measured after 48 hrs by Western blot analysis; assay type: functional, cell-based
AGS [34] = assay: Induction of apoptosis in human AGS cells assessed as necrotic cells at 250 nM measured after 48 hrs by Annexin V-Alexa Fluor 488/propidium iodide staining based flow cytometry (reference value: 0.9%); assay type: functional
AGS [35] = assay: Induction of apoptosis in human AGS cells assessed as appearance of apoptotic bodies at 250 nM measured after 48 hrs by Hoechst 33258 staining based fluorescence microscopy; assay type: functional, cell-based
AGS [36] = assay: Cell cycle arrest in human AGS cells assessed as accumulation at G2/M phase at 10 nM measured after 24 hrs by propidium iodide staining based flow cytometry (reference value: 16.56%); assay type: functional
AGS [37] = assay: Induction of cell cycle arrest in human AGS cells assessed as reduction in cyclinB1 gene expression at 50 nM measured after 48 hrs by RT-qPCR analysis; assay type: functional, cell-based
AGS [38] = assay: Inhibition of PI3K in human AGS cells assessed as decrease in AKT phosphorylation at 50 nM measured after 48 hrs by Western blot analysis; assay type: cell-based
HCT-116 = assay: Cytotoxicity against human HCT-116 cells assessed as reduction in cell viability measured after 48 hrs by MTT assay; assay type: functional, cell-based; conditions: HCT-116, 48 h
AGS [39] = assay: Cytotoxicity against human AGS cells assessed as reduction in cell viability at 10 to 250 nM by MTT assay; assay type: functional, cell-based; conditions: dose 10-250 nM, time 24-72 hrs, TDE = time-dependent effect
AGS [40] = assay: Induction of morphological changes in human AGS cells assessed as cytoplasm concentration at 50 nM measured after 48 hrs; assay type: functional, cell-based
AGS [41] = assay: Induction of morphological changes in human AGS cells assessed as appearance of loosely arranged cells at 50 to 250 nM measured after 48 hrs; assay type: functional, cell-based; conditions: dose 50-250 nM
AGS [42] = assay: Cell cycle arrest in human AGS cells assessed as accumulation at G2/M phase at 20 nM measured after 24 hrs by propidium iodide staining based flow cytometry (reference value: 16.56%); assay type: functional
AGS [43] = assay: Induction of apoptosis in human AGS cells assessed as late apoptotic cells at 10 nM measured after 48 hrs by Annexin V-Alexa Fluor 488/propidium iodide staining based flow cytometry (reference value: 3.1%); assay type: functional
AGS [44] = assay: Increase in MEK mRNA expression in human AGS cells at 50 nM measured after 48 hrs by RT-qPCR analysis; assay type: functional, cell-based
AGS [45] = assay: Antimigratory activity against human AGS cells measured after 48 hrs by crystal violet staining based transwell assay; assay type: functional, cell-based; conditions: dose 10-20 nM, DDE = dose-dependent effect
AGS [46] = assay: Induction of morphological changes in human AGS cells assessed as conversion pf nuclear pyknosis into dense matter at 50 nM measured after 48 hrs; assay type: functional, cell-based
AGS [47] = assay: Induction of apoptosis in human AGS cells assessed as necrotic cells at 50 nM measured after 48 hrs by Annexin V-Alexa Fluor 488/propidium iodide staining based flow cytometry (reference value: 0.9%); assay type: functional

Question: With `O=c1[nH]cc(F)c(=O)[nH]1` [FLUOROURACIL] as the compound, how does the IC50 (AGS [1]) read?
Answer: 58 µM

Question: And the IC50 at 48 h [2]?
Answer: > 100 µM

Question: Which Activity (AGS [3]) does the source give for `Cn1c2nc3cc(F)ccc3c-2cc2ccccc21` here?
Answer: Active

Question: And the IC50 (AGS [1])?
Answer: 0.043 µM

Question: What about the Activity (AGS [1]; DDE = dose-dependent effect) of the same compound?
Answer: Dde

Question: What about the Activity (AGS [4]) of the same compound?
Answer: Active

Question: And the Activity (AGS [5])?
Answer: 17.9%

Question: And the viability at 0.25 µM (AGS [6])?
Answer: 24.3%

Question: What about the Activity (AGS [7]) of the same compound?
Answer: Active

Question: What about the IC50 at 48 h [2] of the same compound?
Answer: 40 µM

Question: And the Activity (AGS [8])?
Answer: Active

Question: What about the IC50 (SMMC-7721) of the same compound?
Answer: 52 µM

Question: And the Activity (AGS [9])?
Answer: Active

Question: What about the Activity (AGS [10]) of the same compound?
Answer: 45.6%

Question: And the Activity (AGS [11])?
Answer: 37.1%

Question: And the inhibition (AGS [12])?
Answer: Active

Question: What about the Activity (AGS [13]) of the same compound?
Answer: Active

Question: What about the Activity (AGS [14]) of the same compound?
Answer: Active

Question: What about the Activity (AGS [15]) of the same compound?
Answer: 42.57%

Question: What about the Activity (AGS [16]) of the same compound?
Answer: 2.9%

Question: And the Activity (AGS [17])?
Answer: Active

Question: And the Activity (AGS [18])?
Answer: Dde

Question: What about the inhibition (AGS [19]) of the same compound?
Answer: Active

Question: What about the Activity (AGS [20]) of the same compound?
Answer: Active

Question: What about the Activity (AGS [21]) of the same compound?
Answer: Active

Question: What about the viability at 0.05 µM (AGS [22]) of the same compound?
Answer: 69.8%

Question: And the Activity (AGS [23])?
Answer: 35.82%

Question: What about the Activity (AGS [24]) of the same compound?
Answer: 29.43%

Question: And the Activity (AGS [25])?
Answer: 1.8%

Question: What about the Activity (AGS [26]) of the same compound?
Answer: 66

Question: And the viability at 0.01 µM (AGS [27])?
Answer: 88.6%

Question: And the Activity (AGS [28])?
Answer: 2.2%

Question: And the Activity (AGS [29])?
Answer: 7.7%

Question: And the Activity (AGS [30])?
Answer: Active

Question: And the IC50 (PANC-1)?
Answer: > 50 µM

Question: What about the Activity (AGS [31]) of the same compound?
Answer: Active

Question: And the Activity (AGS [32])?
Answer: Active

Question: And the Activity (AGS [33])?
Answer: Active

Question: What about the Activity (AGS [34]) of the same compound?
Answer: 30.9%

Question: And the Activity (AGS [35])?
Answer: Active

Question: And the Activity (AGS [36])?
Answer: 21.61%

Question: And the Activity (AGS [37])?
Answer: Active

Question: And the inhibition (AGS [38])?
Answer: Active

Question: What about the IC50 (HCT-116) of the same compound?
Answer: 18 µM

Question: And the Activity (AGS [39])?
Answer: Tde

Question: And the Activity (AGS [40])?
Answer: Active

Question: What about the Activity (AGS [41]) of the same compound?
Answer: Active

Question: What about the Activity (AGS [42]) of the same compound?
Answer: 24.97%

Question: What about the Activity (AGS [43]) of the same compound?
Answer: 7.3%

Question: And the Activity (AGS [44])?
Answer: Active

Question: And the Activity (AGS [45])?
Answer: Dde

Question: What about the Activity (AGS [46]) of the same compound?
Answer: Active

Question: And the Activity (AGS [47])?
Answer: 9.5%
